Where a name gives a salt, the structure may show the parent alone.
Columns and labels:
pH of salt solutions = type: physicochemical
calcium channel = conditions: statement in background; cited from earlier work
[1] = solubility of active agent, its salts and cosolvent solutions; conditions: for solubility (in words): salts of the active agent
rat tail vein = rat tail vein injection (irritation / in vivo acceptability)
Protocol: In vivo acceptability is tested by injecting a small amount of the formulation into the tail vein of a rat or other suitable species, for example, as described by Waynforth, Experimental and Surgical Technique in the Rat, Chapter 2, pages 42-45 (Academic Press, 1980).
This procedure is a modification of a procedure described by Waynforth in Experimental and Surgical Technique in the Rat, Chapter 2, pages 42-45 (Academic Press, 1980). The rat tail vein is dilated by warming, and a test formulation administered by injection, using a 25G needle, with the rat held in a restrainer, and a heat source close enough to keep the tail warm during injection. The tail is observed for signs of irritation, which are outwardly apparent and can be detected by the presence of bruising, swelling, lack of flexibility, lumps, or by observation of distress in the animal upon subsequent administration.

[2] = precipitation on dropping the injectable formulation into pH 7.4 phosphate buffer; type: physicochemical; conditions: approx. 1 ml injectable formulation into 50 ml 0.1M pH 7.4 phosphate buffer
[3] = stability testing of formulations at 25° C. (content, pH, appearance); type: physicochemical
Protocol: Stability testing of the formulations is done, for example, as described in Remington's Pharmaceutical Sciences. […] A formulation is prepared and placed in suitable container, storing it at 25° C., and periodically observing the appearance of the samples and removing aliquots to be tested for concentration and pH.
At periodic intervals, the appearance of the samples was noted, and aliquots were withdrawn and assayed for active agent concentration and pH.

[4] = compatibility with infusion fluids; type: physicochemical; conditions: wide range of commercially available infusion fluids
Protocol: Compatibility with infusion fluids is determined by adding a formulation of the invention to an infusion fluid and inspecting the resulting mixture for formation of any precipitate, discoloration, or the appearance of other physical changes, monitoring the solution active ingredient concentration to ensure no loss in potency, which could lead to decreases in efficacy.

[5] = in vivo; cited from earlier work

Structure (SMILES): Cc1ccc(-c2nc(CN3CCN(C(c4ccccc4)c4ccccc4)CC3)c(C)[nH]2)cc1
- pH relative to optimum range for physiological compatibility (pH of salt solutions; when prepared at the desired concentrations): outside the optimum pH range for physiological compatibility

Structure (SMILES): Cc1ccc(-c2nc(CN3CCN(C(c4ccccc4)c4ccccc4)CC3)c(C)[nH]2)cc1 [1-Diphenylmethyl-4-[(2-(4-methylphenyl)-5-methyl-1H-imidazol-4-yl)methyl]piperazine]
- calcium channel antagonist (calcium channel): potent calcium channel antagonist
- solubility problems ([1]; particularly at physiological pH, in formulation process and upon administration to test animals): significant solubility problems

Structure (SMILES): Cc1ccc(-c2nc(CN3CCN(C(c4ccccc4)c4ccccc4)CC3)c(C)[nH]2)cc1.Cl.Cl.Cl [1-diphenylmethyl-4-[(2-(4-methylphenyl)-5-methyl-1H-imidazol-4-yl)methyl]piperazine, trihydrochloride]
- signs of pain / irritation upon injection (rat tail vein; 8 mg/ml solution, pH about 3-3.5, rat tail vein): bruising of the vein, hardening of the tail and other signs of pain upon injection
- compound precipitation in rat tail veins (rat tail vein; 8 mg/ml solution, pH about 3-3.5 adjusted with sodium hydroxide, shortly after injection): compound precipitation was observed in rat tail veins shortly after injection
- precipitate at interface [2]: a white precipitate was observed immediately at the interface between the two liquids

Structure (SMILES): Cc1ccc(-c2nc(CN3CCN(C(c4ccccc4)c4ccccc4)CC3)c(C)[nH]2)cc1 [ascorbic acid salt]
- discolouration of solutions upon standing ([3]; solutions of ascorbic acid salt, on standing): rapid discolouration upon standing
- solubility (in words) [1]: relatively insoluble

Structure (SMILES): Cc1ccc(-c2nc(C)c(CN3CCN(C(c4ccccc4)c4ccccc4)CC3)[nH]2)cc1 [aspartic]
- changes in properties of salts ([1]; salts investigated for adequate solubility at physiologically acceptable pH and reduced irritancy): only moderate changes in properties

Structure (SMILES): Cc1ccc(-c2nc(C)c(CN3CCN(C(c4ccccc4)c4ccccc4)CC3)[nH]2)cc1 [malonic]
- solubility (in words) [1]: did not have adequate solubility

Structure (SMILES): Cc1ccc(-c2nc(C)c(CN3CCN(C(c4ccccc4)c4ccccc4)CC3)[nH]2)cc1 [oxalic]
- solubility (in words) [1]: did not have adequate solubility

Structure (SMILES): Cc1ccc(-c2nc(CN3CCN(C(c4ccccc4)c4ccccc4)CC3)c(C)[nH]2)cc1 [sulfuric acid salt]
- pH in solution (pH of salt solutions): 1.76

Structure (SMILES): Cc1ccc(-c2nc(CN3CCN(C(c4ccccc4)c4ccccc4)CC3)c(C)[nH]2)cc1.O=C(O)C(O)C(O)C(=O)O [tartrate salt, 1-diphenylmethyl-4-[(2-(4-methylphenyl)-5-methyl-1H -imidazol-4-yl)methyl]piperazine tartrate]
- irritancy levels (rat tail vein; one week tail vein injection trial): Acceptable irritancy levels
- pH in solution (pH of salt solutions): greater than 3.0
- physical and chemical stability of the solution ([3]; storage at 25° C.): at least 12 months
- compatibility with infusion fluids [4]: compatible with a wide range of commercially available infusion fluids
- administration over 28 days (rats): successful administration
- administration over 28 days (baboons): successful administration
- solubility (physchem): > 4000 µg/mL

Structure (SMILES): Clc1ccccc1CN1CCc2sccc2C1 [ticlopidine]
- reduction of the risk of a second ischemic event [5]: demonstrated to reduce the risk of a second ischemic event

— patent publication US4973591A, “Parenteral formulations of 1-diphenylmethyl-4-((2-(4-methylphenyl)-5-methyl-1H-imidazol-4-yl)methyl )piperazine” (Syntex Pharmaceuticals, Ltd., priority 1988, dated 1990)
